Among the data in US11976083B2, “Inhibitors of peptidylarginine deiminases” (Gilead Sciences, Inc., priority 2020, dated 2024) are IC50 values, retold here.

Each structure is given as a SMILES string.

For the assay, the target named is T1, human PAD4 (Homo sapiens, UniProt Q9UM07).
T1 construct: human PAD4 (NM_012387), A2-P663, was PCR amplified; His-SUMO (N, cleaved yes); made in house; host or cells: E. coli BL21(DE3)
As to the kind of experiment: In vitro PAD4 BAEE biochemical assay. The settings on record: BAEE substrate 3 mM, 5 nM PAD4, 2 mM calcium chloride; geometric mean of multiple experiments. In outline:
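Fluorescence read-out (ex 405/em 535 nm) of isoindole formed from ammonia, o-phthalaldehyde and DTT after EDTA stop. Reaction: 5 nM PAD4, 2 mM CaCl2, 3 mM BAEE, 2 h, 25 °C, after 30 min enzyme–compound preincubation. Normalised to BB-Cl-Amidine (50 µM) and DMSO controls.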

T1 sequence (Q9UM07 2-663): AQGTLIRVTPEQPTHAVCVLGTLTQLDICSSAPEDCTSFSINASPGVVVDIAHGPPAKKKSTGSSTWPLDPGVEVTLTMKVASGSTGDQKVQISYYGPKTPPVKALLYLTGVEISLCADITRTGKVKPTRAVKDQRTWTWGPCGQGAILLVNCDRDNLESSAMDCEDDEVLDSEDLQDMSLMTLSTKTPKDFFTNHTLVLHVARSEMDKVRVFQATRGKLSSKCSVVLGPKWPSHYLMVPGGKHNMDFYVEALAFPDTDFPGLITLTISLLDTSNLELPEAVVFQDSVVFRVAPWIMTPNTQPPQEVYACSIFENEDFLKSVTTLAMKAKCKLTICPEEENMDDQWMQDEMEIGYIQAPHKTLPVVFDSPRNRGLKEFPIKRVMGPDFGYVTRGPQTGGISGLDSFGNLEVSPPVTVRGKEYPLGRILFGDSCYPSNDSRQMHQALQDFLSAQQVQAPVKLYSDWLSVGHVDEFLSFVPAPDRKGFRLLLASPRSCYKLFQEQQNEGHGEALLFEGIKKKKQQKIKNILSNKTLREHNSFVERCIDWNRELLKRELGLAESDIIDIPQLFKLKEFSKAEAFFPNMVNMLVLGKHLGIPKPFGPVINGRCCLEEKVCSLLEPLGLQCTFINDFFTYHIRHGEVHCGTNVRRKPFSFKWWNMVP

`COc1cc(C(=O)N2CC[C@@H](O)[C@@H](N)C2)cc2nc(-c3cc4ccc5nc4n3CCCCCc3cncc(F)c3C(=O)N[C@@H]5C)n(C)c12` [Example 660, (2~{R})-17-[5-[(3~{S},4~{R})-3-amino-4-hydroxy-piperidine-1-carbonyl]-7-methoxy-1-methyl-benzimidazol-2-yl]-6-fluoro-2-methyl-3,8,16,22-tetrazatetracyclo[14.5.2.0^ {5,10}.0^{19,23}] tricosa-1(22),5,7,9,17,19(23), 20-heptaen-4-one]: the IC50 stood at 16 nM. The figure for `COc1cc(C(=O)N2C[C@H](N)[C@@H]3CC[C@H]2C3)cc2nc(-c3cc4ccc5nc4n3CC(F)(F)CCCc3cncc(F)c3C(=O)N[C@@H]5C)n(C)c12` [Example 446, (2~{R})-17-[5-[(1~{S},4~{R},5~{R})-4-amino-2-azabicyclo[3.2.1]octane-2-carbonyl]-7-methoxy-1-methyl-benzimidazol-2-yl]-6,14,14-trifluoro-2-methyl-3,8,16,22-tetrazatetracyclo[14.5.2.0^{5,10}.0^{19,23}] tricosa-1(22),5(10),6,8,17,19(23),20-heptaen-4-one] is 38 nM.

Take `COc1cc(C(=O)N2CCC[C@@H](N)[C@H]2C)cc2nc(-c3cc4ccc5c(F)c4n3CCCCCCC(C)(C)C(=O)N[C@@H]5C)n(C)c12` [Example 645, (11~{R})-17-[5-[(2~{R},3~ {R})-3-amino-2-methyl-piperidine-1-carbonyl]-7-methoxy-1-methyl-benzimidazol-2-yl]-19-fluoro-8,8,11-trimethyl-1,10-diazatricyclo [10.5.2.0^{15,18}]nonadeca-12(19),13,15(18),16-tetraen-9-one]: the IC50 was determined as 36 nM. `COc1cc(C(=O)N2C[C@H](N)C[C@@H](F)C2)cc2nc(-c3cc4ccc5nc4n3CC(F)(F)CCCC[C@@](C)(C(F)(F)F)C(=O)N[C@@H]5C)n(C)c12` [Example 728, (8~{R},11~{R})-17-[5-[(3~ {R},5~{R})-3-amino-5-fluoro-piperidine-1-carbonyl]-7-methoxy-1-methyl-benzimidazol-2-yl]-3,3-difluoro-8,11-dimethyl-8-(trifluoromethyl)-1,10,19-triazatricyclo[10.5.2.0^ {15,18}]nonadeca-12(19),13,15(18),16-tetraen-9-one]: the IC50 was 75 nM. The figure for `COc1cc(C(=O)N2[C@H]3CC[C@@H]2[C@H](N)C3)cc2nc(-c3cc4ccc5nc4n3CC[C@H]3C[C@H]3COCCC(=O)N[C@@H]5C)n(C)c12` [Example 338, (4~{R},6~{R},13~{R})-19-[5-[(1~{R},2~{R},4~{S})-2-amino-7-azabicyclo[2.2.1]heptane-7-carbonyl]-7-methoxy-1-methyl-benzimidazol-2-yl]-13-methyl-8-oxa-1,12,21-triazatetracyclo[12.5.2.0^{4,6}.0^{17,20}] henicosa-14(21),15,17(20),18-tetraen-11-one] is 53 nM; for `COc1cc(C(=O)N[C@H]2CNCC[C@H]2F)cc2nc(-c3cc4ccc5nc4n3CCCCCCC(C)(C)C(=O)N[C@@H]5C)n(C)c12` [Example 69, ~{N}-[(3~{S},4~{R})-4-fluoro-3-piperidyl]-7-methoxy-1-methyl-2-[(11~{R})-8,8,11-trimethyl-9-oxo-1,10,19-triazatricyclo[10.5.2.0^{15,18}]nonadeca-12(19),13,15(18),16-tetraen-17-yl]benzimidazole-5-carboxamide] it is 201 nM; for `CO[C@@H]1CCN(C(=O)c2cc(F)c3c(c2)nc(-c2cc4ccc5nc4n2CC(F)(F)/C=C/C[C@@H]2C[C@H]2C(=O)N[C@@H]5C)n3C)C[C@@H]1N` [Example 739] it is 62 nM.

`COc1cc(C(=O)N2CCC[C@@H](N)C2)cc2nc(-c3cc4ccc5cc4n3CCCCC[C@@H]3C[C@H]3C(=O)N[C@@H]5C)n(C)c12` [Example 165, (2~{R},5~{R},7~{R})-14-[5-[(3~{R})-3-aminopiperidine-1-carbonyl]-7-methoxy-1-methyl-benzimidazol-2-yl]-2-methyl-3,13-diazatetracyclo[11.5.2.0^{5,7}.0^{16,20}] icosa-1(19),14,16(20),17-tetraen-4-one]: the IC50 worked out at 235 nM. As for `COc1cc(C(=O)N2CC[C@@H](OC)[C@@H](N)C2)cc2nc(-c3cc4ccc5nc4n3CCCC(F)(F)C[C@@H]3C[C@@H]3C(=O)N[C@@H]5C)n(C)c12` [Example 858, (2~{R},5~{S},7~{S})-14-[5-[(3~{S},4~{R})-3-amino-4-methoxy-piperidine-1-carbonyl]-7-methoxy-1-methyl-benzimidazol-2-yl]-9,9-difluoro-2-methyl-3,13,19-triazatetracyclo [11.5.2.0^{5,7}.0^{16,20}] icosa-1(19),14,16(20), 17-tetraen-4-one], the figure is 459 nM; as for `COc1cc(C(=O)N2[C@H]3CC[C@@H]2[C@H](N)C3)cc2nc(-c3cc4ccc5nc4n3CCCCCCCC(=O)N[C@@H]5C)n(C3CC3)c12` [Example 250, (11~{R})-17-[5-[(1~{R},2~{R},4~{S})-2-amino-7-azabicyclo[2.2.1]heptane-7-carbonyl]-1-cyclopropyl-7-methoxy-benzimidazol-2-yl]-11-methyl-1,10,19-triazatricyclo[10.5.2.0^{15,18}]nonadeca-12(19),13,15(18),16-tetraen-9-one], 44 nM; as for `COc1cc(C(=O)N2CC[C@@H](OC)[C@@H](N)C2)cc2nc(-c3cc4ccc5nc4n3CCCCC[C@@H]3C[C@H]3C(=O)NC5(C)C)n(C)c12` [Example 782, (5˜{R},7˜{R})-14-[5-[(3˜{S},4˜{R})-3-amino-4-methoxy-piperidine-1-carbonyl]-7-methoxy-1-methyl-benzimidazol-2-yl]-2,2-dimethyl-3,13,19-triazatetracyclo[11.5.2.0^{5,7}.0^{16,20}]icosa-1(18),14,16,19-tetraen-4-one], 63 nM. In the case of `COc1cc(C(=O)N2[C@H]3CC[C@@H]2[C@H](N)C3)cc2nc(-c3cc4ccc5nc4n3CCC3(CCOCC(=O)N[C@@H]5C)CC3)c(C)n12` [Example 330, (11~{R})-17-[7-[(1~{R},2~{R},4~{S})-2-amino-7-azabicyclo[2.2.1]heptane-7-carbonyl]-5-methoxy-3-methyl-imidazo[1,2-a]pyridin-2-yl]-11-methyl-spiro[7-oxa-1,10,19-triazatricyclo[10.5.2.0^{15,18}]nonadeca-12(19),13,15(18),16-tetraene-4,1′-cyclopropane]-9-one], the IC50 was found to be 80 nM. `C[C@H]1NC(=O)[C@@H]2C[C@@]2(F)/C=C/CCCn2c(-c3nc4cc(C(=O)N5C[C@H](N)[C@@H]6CC[C@H]5C6)cc(F)c4n3C3CC3)cc3ccc1nc32` [Example 919, (2~{R},5~{S},7~{R},8~{E})-14-[5-[(1~{S},4~{R},5~{R})-4-amino-2-azabicyclo[3.2.1]octane-2-carbonyl]-1-cyclopropyl-7-fluoro-benzimidazol-2-yl]-7-fluoro-2-methyl-3,13,19-triazatetracyclo[11.5.2.0^ {5,7}.0^{16,20}]icosa-1(19),8,14,16(20),17-pentaen-4-one]: the IC50 is 20 nM. `C[C@H]1NC(=O)c2c(ccc3cccnc23)CCCCCn2c(-c3nc4cc(C(=O)N5C[C@H](N)[C@@H]6CC[C@H]5C6)cc(F)c4n3C3CC3)cc3ccc1nc32` [Example 841, (2~{R})-21-[5-[(1~{S},4~{R}, 5~{R})-4-amino-2-azabicyclo [3.2.1]octane-2-carbonyl]-1-cyclopropyl-7-fluoro-benzimidazol-2-yl]-2-methyl-3,7,20,26-tetrazapentacyclo [18.5.2.0^{5,14}.0^{6,1 1}.0^{23,27}]heptacosa-1(26),5(14),6(11),7,9,12,21, 23(27),24-nonaen-4-one]: the IC50 came out at 17 nM. The figure for `COc1cc(C(=O)N2C[C@H](N)[C@@H]3CC[C@H]2C3)cc2nc(-c3cc4ccc5nc4n3CCCCC[C@]3(F)C[C@H]3C(=O)N[C@@H]5C)c(C)n12` [Example 815, (2~{R},5~{S},7~{S})-14-[7-[(1~{S},4~{R},5~{R})-4-amino-2-azabicyclo[3.2.1]octane-2-carbonyl]-5-methoxy-3-methyl-imidazo[1,2-a]pyridin-2-yl]-7-fluoro-2-methyl-3,13,19-triazatetracyclo [11.5.2.0^{5,7}.0^{16,20}] icosa-1(18),14,16,19-tetraen-4-one] is 26 nM; for `COc1cc(C(=O)N2[C@H]3CC[C@@H]2[C@H](N)C3)cc2nc(-c3cc4ccc5nc4n3CCCCOCCC(=O)N[C@@H]5C)c(C)n12` [Example 321, (11~{R})-17-[7-[(1~{R},2~{R},4~{S})-2-amino-7-azabicyclo[2.2.1]heptane-7-carbonyl]-5-methoxy-3-methyl-imidazo[1,2-a]pyridin-2-yl]-11-methyl-6-oxa-1,10,19-triazatricyclo[10.5.2.0^{15,18}]nonadeca-12(19),13,15(18),16-tetraen-9-one] it is 32 nM. As for `COc1cc(C(=O)N2C[C@H](N)C[C@@H](F)C2)cc2nc(-c3cc4ccc5nc4n3CC(F)(F)CCC[C@@H]3C[C@H]3C(=O)N[C@@H]5C)n(C)c12` [Example 851, (2~{R},5~{R},7~{R})-14-[5-[(3~{R},5~{R})-3-amino-5-fluoro-piperidine-1-carbonyl]-7-methoxy-1-methyl-benzimidazol-2-yl]-11,11-difluoro-2-methyl-3,13,19-triazatetracyclo[11.5.2.0^ {5,7}.0^{16,20}]icosa-1(19), 14,16(20),17-tetraen-4-one], the figure is 20 nM; as for `CCc1c(-c2cc3ccc4nc3n2CCCCCCC(C)(C)C(=O)N[C@@H]4C)nn2cc(C(=O)N3CCC[C@@H](N)C3)ccc12` [Example 237, (11~{R})-17-[6-[(3~{R})-3-aminopiperidine-1-carbonyl]-3-ethyl-pyrazolo[1,5-a]pyridin-2-yl]-8,8,11-trimethyl-1,10,19-triazatricyclo[10.5.2.0^{15,18}]nonadeca-12(19),13,15(18),16-tetraen-9-one], 62 nM.

A word on the IC50: it is the point on the concentration scale where inhibition reaches its midpoint.
